Test results from patent US20160263097A1 (Bristol-Myers Squibb Company, priority 2012, published 2016).
Several values for one entry are separate records, joined by “and”; a condition that tells them apart may be missing. Equal entries are not always repeated.

Tests used:
Assay type in all cases: in vivo, human
[1] = Study 3: open-label 3-way crossover, liquid formulation oral vs NGT with Boost Plus vs crushed tablet via NGT; conditions: for half-life / AUC(0-t) / AUC(0-inf) / Tmax: human, plasma, 5 mg; for Tmax: read-out: Tmax Median
Procedure: The apixaban liquid formulation was administered orally (PO), via nasogastric tube (NGT) with different flush media, or with an enteral meal (BOOST Plus®). Frel of a crushed tablet administered via NGT versus oral liquid formulation was also evaluated. […] The effect of different flush media [D5W and infant formula (Similac®)] and coadministered nutritional supplement (Boost Plus®) on the liquid formulation's bioavailability was assessed.
(§1) Three open-label, randomized, crossover studies were conducted. […] Serial pharmacokinetics samples were collected. […] Frel was defined as the ratio of AUCinf.
(§2) Key exclusion criteria included: (i) any history or evidence of abnormal bleeding or coagulation disorders, intracranial hemorrhage, or abnormal bleeding; (ii) any gastrointestinal surgery that could impact upon the absorption of study drug; and (iii) current or recent (within 3 months) gastrointestinal disease including, but not limited to dyspepsia, gastrointestinal ulcers, esophageal or gastric varices, or hemorrhoids.

[2] = Study 2: open-label 3-way crossover, liquid formulation oral vs NGT with D5W or infant formula flush; conditions: for half-life / Tmax / AUC(0-t) / AUC(0-inf): human, plasma, 5 mg
Procedure: (§3) Frel of a crushed tablet administered via NGT versus oral liquid formulation was also evaluated. […] The effect of different flush media [D5W and infant formula (Similac®)] and coadministered nutritional supplement (Boost Plus®) on the liquid formulation's bioavailability was assessed.
as §1, §2

[3] = Study 1: open-label 2-way crossover relative bioavailability, tablet vs oral liquid formulation; conditions: for Tmax / AUC(0-t) / AUC(0-inf) / half-life: human, plasma; for half-life: read-out: T1/2 Mean (converted)
Procedure: as §3, §1, §2

[4] = Safety assessments in the studies (adverse events, vital signs, ECGs, laboratory tests); conditions: healthy subjects in the studies, 5 or 10 mg single doses
Text: Safety assessments were made based on adverse event reports and the results of vital sign measurements, ECGs, physical examinations, and clinical laboratory tests.

[5] = Study 1, Treatment A: 2 × 5 mg Phase 3 tablets, oral, healthy subjects

COc1ccc(-n2nc(C(N)=O)c3c2C(=O)N(c2ccc(N4CCCCC4=O)cc2)CC3)cc1 [Apixaban, 4,5,6,7-tetrahydro-1-(4-methoxyphenyl)-7-oxo-6-[4-(2-oxo-1-piperidinyl)phenyl]-1H-pyrazolo[3,4-c]pyridine-3-carboxamide]
Cmax Geo. Mean (% CV) ([1]; Study 3, TRT A: 5 mg oral liquid formulation (0.4 mg/mL × 12.5 mL) administered orally): 177 ng/mL
Cmax Adj.Geo.Mean ([1]; Study 3, TRT A: 5 mg oral liquid formulation administered orally): 179 ng/mL
Frel Geo. Mean ([1]; Study 3, TRT B (liquid formulation after Boost Plus via NGT) versus oral liquid formulation): 0.813
Cmax Geo. Mean (% CV) ([1]; Study 3, TRT B: 5 mg oral liquid formulation (0.4 mg/mL × 12.5 mL) after Boost Plus via NGT): 121 ng/mL
Cmax Adj.Geo.Mean ([1]; Study 3, TRT B: 5 mg oral liquid formulation after Boost Plus via NGT): 122 ng/mL
Frel Geo. Mean ([1]; Study 3, TRT C (crushed tablet via NGT) versus oral liquid formulation): 0.951
Cmax Adj.Geo.Mean ([1]; Study 3, TRT C: 5 mg crushed tablet via NGT): 158 ng/mL
Cmax Geo. Mean (% CV) ([1]; Study 3, TRT C: 5 mg crushed tablet via NGT (suspended in 60 mL D5W)): 158 ng/mL
Frel ([1]; Study 3, crushed tablet via NGT versus oral liquid formulation): 95%
Frel ([1]; Study 3, liquid formulation with BOOST Plus via NGT versus oral liquid formulation): 81%
half-life ([1]; Study 3, between the 3 treatments, read-out: mean T1/2): 9.6 to 11.2 h
AUC(0-t) ([1]; other: via nasogastric tube (NGT), Study 3, TRT C: 5 mg crushed tablet via NGT (suspended in 60 mL D5W), read-out: AUC(0-T) Geo. Mean (% CV)): 1300 ng·h/mL
AUC(0-inf) ([1]; other: via nasogastric tube (NGT), Study 3, TRT C: 5 mg crushed tablet via NGT (suspended in 60 mL D5W), read-out: AUCinf Geo. Mean (% CV)): 1320 ng·h/mL
half-life ([1]; other: via nasogastric tube (NGT), Study 3, TRT C: 5 mg crushed tablet via NGT (suspended in 60 mL D5W), read-out: T1/2 Mean (converted)): 10.4 h
Tmax ([1]; other: via nasogastric tube (NGT), Study 3, TRT C: 5 mg crushed tablet via NGT (suspended in 60 mL D5W)): 1 h
AUC(0-t) ([1]; other: via nasogastric tube (NGT), Study 3, TRT C: 5 mg crushed tablet via NGT, read-out: AUC(0-T) Adj.Geo.Mean): 1300 ng·h/mL
AUC(0-inf) ([1]; other: via nasogastric tube (NGT), Study 3, TRT C: 5 mg crushed tablet via NGT, read-out: AUCinf Adj.Geo.Mean): 1330 ng·h/mL
AUC(0-t) ([1]; po, Study 3, TRT A: 5 mg oral liquid formulation (0.4 mg/mL × 12.5 mL) administered orally, read-out: AUC(0-T) Geo. Mean (% CV)): 1350 ng·h/mL
AUC(0-inf) ([1]; po, Study 3, TRT A: 5 mg oral liquid formulation (0.4 mg/mL × 12.5 mL) administered orally, read-out: AUCinf Geo. Mean (% CV)): 1380 ng·h/mL
half-life ([1]; po, Study 3, TRT A: 5 mg oral liquid formulation (0.4 mg/mL × 12.5 mL) administered orally, read-out: T1/2 Mean (converted)): 11.2 h
Tmax ([1]; po, Study 3, TRT A: 5 mg oral liquid formulation (0.4 mg/mL × 12.5 mL) administered orally): 1 h
AUC(0-t) ([1]; po, Study 3, TRT A: 5 mg oral liquid formulation administered orally, read-out: AUC(0-T) Adj.Geo.Mean): 1370 ng·h/mL
AUC(0-inf) ([1]; po, Study 3, TRT A: 5 mg oral liquid formulation administered orally, read-out: AUCinf Adj.Geo.Mean): 1400 ng·h/mL
AUC(0-t) ([1]; po, Study 3, TRT B: 5 mg oral liquid formulation (0.4 mg/mL × 12.5 mL) after Boost Plus via NGT, read-out: AUC(0-T) Geo. Mean (% CV)): 1100 ng·h/mL
AUC(0-inf) ([1]; po, Study 3, TRT B: 5 mg oral liquid formulation (0.4 mg/mL × 12.5 mL) after Boost Plus via NGT, read-out: AUCinf Geo. Mean (% CV)): 1120 ng·h/mL
half-life ([1]; po, Study 3, TRT B: 5 mg oral liquid formulation (0.4 mg/mL × 12.5 mL) after Boost Plus via NGT, read-out: T1/2 Mean (converted)): 9.56 h
Tmax ([1]; po, Study 3, TRT B: 5 mg oral liquid formulation (0.4 mg/mL × 12.5 mL) after Boost Plus via NGT): 3 h
AUC(0-t) ([1]; po, Study 3, TRT B: 5 mg oral liquid formulation after Boost Plus via NGT, read-out: AUC(0-T) Adj.Geo.Mean): 1110 ng·h/mL
AUC(0-inf) ([1]; po, Study 3, TRT B: 5 mg oral liquid formulation after Boost Plus via NGT, read-out: AUCinf Adj.Geo.Mean): 1140 ng·h/mL
Cmax Geo. Mean ([2]; Study 2, Treatment A: 5 mg (12.5 mL) liquid formulation by mouth via oral syringe): 189 ng/mL
Cmax Adj.Geo.Mean ([2]; Study 2, Treatment A: liquid formulation by mouth): 191 ng/mL
Cmax Adj.Geo.Mean ([2]; Study 2, Treatment B: liquid formulation via NGT, D5W flush): 182 ng/mL
Frel Geo. Mean ([2]; Study 2, Treatment C (NGT, infant formula flush) versus oral liquid formulation): 0.922
Cmax Geo. Mean ([2]; Study 2, Treatment C: 5 mg (12.5 mL) liquid formulation via NGT followed by 60 mL of infant formula via NGT): 153 ng/mL
Cmax Adj.Geo.Mean ([2]; Study 2, Treatment C: liquid formulation via NGT, infant formula flush): 154 ng/mL
Frel ([2]; Study 2, liquid formulation via NGT flushed with 60 mL infant formula versus oral liquid formulation): 92.2% and 92%
half-life ([2]; Study 2, across the 3 treatments, read-out: mean T1/2 (converted)): ~10.5 h
Tmax ([2]; Study 2, across the 3 treatments, read-out: median Tmax): 0.5 to 1 h
AUC(0-t) ([2]; oral, Study 2, Treatment A: liquid formulation by mouth, read-out: AUC(0-T) Adj.Geo.Mean): 1270 ng·h/mL
AUC(0-inf) ([2]; oral, Study 2, Treatment A: liquid formulation by mouth, read-out: AUCinf Adj.Geo.Mean): 1290 ng·h/mL
AUC(0-t) ([2]; other: via nasogastric tube (NGT), Study 2, Treatment B: liquid formulation via NGT, D5W flush, read-out: AUC(0-T) Adj.Geo.Mean): 1230 ng·h/mL
AUC(0-inf) ([2]; other: via nasogastric tube (NGT), Study 2, Treatment B: liquid formulation via NGT, D5W flush, read-out: AUCinf Adj.Geo.Mean): 1250 ng·h/mL
AUC(0-t) ([2]; other: via nasogastric tube (NGT), Study 2, Treatment C: liquid formulation via NGT, infant formula flush, read-out: AUC(0-T) Adj.Geo.Mean): 1170 ng·h/mL
AUC(0-inf) ([2]; other: via nasogastric tube (NGT), Study 2, Treatment C: liquid formulation via NGT, infant formula flush, read-out: AUCinf Adj.Geo.Mean): 1190 ng·h/mL
AUC(0-t) ([2]; po, Study 2, Treatment A: 5 mg (12.5 mL) liquid formulation by mouth via oral syringe, read-out: AUC(0-T) Geo. Mean): 1260 ng·h/mL
AUC(0-inf) ([2]; po, Study 2, Treatment A: 5 mg (12.5 mL) liquid formulation by mouth via oral syringe, read-out: AUCinf Geo. Mean): 1280 ng·h/mL
half-life ([2]; po, Study 2, Treatment A: 5 mg (12.5 mL) liquid formulation by mouth via oral syringe, read-out: T1/2 Mean (converted)): 10.5 h
Tmax ([2]; po, Study 2, Treatment A: 5 mg (12.5 mL) liquid formulation by mouth via oral syringe, read-out: Tmax Median): 0.517 h
AUC(0-t) ([2]; po, Study 2, Treatment B: 5 mg (12.5 mL) liquid formulation via NGT followed by 60 mL of D5W via NGT, read-out: AUC(0-T) Geo. Mean): 1210 ng·h/mL
AUC(0-inf) ([2]; po, Study 2, Treatment B: 5 mg (12.5 mL) liquid formulation via NGT followed by 60 mL of D5W via NGT, read-out: AUCinf Geo. Mean): 1240 ng·h/mL
half-life ([2]; po, Study 2, Treatment B: 5 mg (12.5 mL) liquid formulation via NGT followed by 60 mL of D5W via NGT, read-out: T1/2 Mean (converted)): 10.4 h
Tmax ([2]; po, Study 2, Treatment B: 5 mg (12.5 mL) liquid formulation via NGT followed by 60 mL of D5W via NGT, read-out: Tmax Median): 1 h
AUC(0-t) ([2]; po, Study 2, Treatment C: 5 mg (12.5 mL) liquid formulation via NGT followed by 60 mL of infant formula via NGT, read-out: AUC(0-T) Geo. Mean): 1150 ng·h/mL
AUC(0-inf) ([2]; po, Study 2, Treatment C: 5 mg (12.5 mL) liquid formulation via NGT followed by 60 mL of infant formula via NGT, read-out: AUCinf Geo. Mean): 1180 ng·h/mL
half-life ([2]; po, Study 2, Treatment C: 5 mg (12.5 mL) liquid formulation via NGT followed by 60 mL of infant formula via NGT, read-out: T1/2 Mean (converted)): 10.6 h
Tmax ([2]; po, Study 2, Treatment C: 5 mg (12.5 mL) liquid formulation via NGT followed by 60 mL of infant formula via NGT, read-out: Tmax Median): 1 h
Cmax Adj.Geo.Mean ([3]; Study 1, Treatment A: 2 × 5 mg Phase 3 tablets): 294 ng/mL
Cmax Geo. Mean [3, 5]: 294 ng/mL
Tmax Median [3, 5]: 2 h
Cmax Adj.Geo.Mean ([3]; Study 1, Treatment B: 25 mL × 0.4 mg/mL liquid formulation): 287 ng/mL
Cmax Geo. Mean ([3]; Study 1, Treatment B: 25 mL × 0.4 mg/mL liquid formulation, oral, healthy subjects): 287 ng/mL
Tmax ([3]; 10 mg, Study 1, Treatment B: 25 mL × 0.4 mg/mL liquid formulation, oral, healthy subjects, read-out: Tmax Median): 2 h
AUC(0-t) ([3]; oral, 10 mg, Study 1, Treatment A: 2 × 5 mg Phase 3 tablets, read-out: AUC(0-T) Adj.Geo.Mean): 2670 ng·h/mL
AUC(0-inf) ([3]; oral, 10 mg, Study 1, Treatment A: 2 × 5 mg Phase 3 tablets, read-out: AUCinf Adj.Geo.Mean): 2710 ng·h/mL
AUC(0-t) ([3]; oral, 10 mg, Study 1, Treatment B: 25 mL × 0.4 mg/mL liquid formulation, read-out: AUC(0-T) Adj.Geo.Mean): 2780 ng·h/mL
AUC(0-inf) ([3]; oral, 10 mg, Study 1, Treatment B: 25 mL × 0.4 mg/mL liquid formulation, read-out: AUCinf Adj.Geo.Mean): 2850 ng·h/mL
AUC(0-t) ([3]; po, 10 mg, Study 1, Treatment A: 2 × 5 mg Phase 3 tablets, oral, healthy subjects, read-out: AUC(0-T) Geo. Mean): 2660 ng·h/mL
AUC(0-inf) ([3]; po, 10 mg, Study 1, Treatment A: 2 × 5 mg Phase 3 tablets, oral, healthy subjects, read-out: AUCinf Geo. Mean): 2710 ng·h/mL
half-life ([3]; po, 10 mg, Study 1, Treatment A: 2 × 5 mg Phase 3 tablets, oral, healthy subjects): 12.3 h
AUC(0-t) ([3]; po, 10 mg, Study 1, Treatment B: 25 mL × 0.4 mg/mL liquid formulation, oral, healthy subjects, read-out: AUC(0-T) Geo. Mean): 2790 ng·h/mL
AUC(0-inf) ([3]; po, 10 mg, Study 1, Treatment B: 25 mL × 0.4 mg/mL liquid formulation, oral, healthy subjects, read-out: AUCinf Geo. Mean): 2860 ng·h/mL
half-life ([3]; po, 10 mg, Study 1, Treatment B: 25 mL × 0.4 mg/mL liquid formulation, oral, healthy subjects): 13.8 h
Tmax ([3]; summary over all treatments of Studies 1-3 except BOOST Plus, read-out: Tmax median): 0.5 to 2 h
safety and tolerability [4]: safe and well tolerated
